Measurements: patent US20220281848A1, “PYRAZOLE-SUBSTITUTED PYRROLIDINONES AS HERBICIDES” (FMC Corporation, priority 2019, published 2022)

System: plants
Assay: Test D pre-emergence, other plants of Tables D1 and D3
Format: in vivo
Settings: preemergent, 20 DAA
Summary of the method: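 Seeds treated with herbicide safener; sown in soil; glasshouse, 16 h light, 65% humidity. Sprayed day 1 (pre) or ~day 12 (post). Spray in 0.2% v/v adjuvant. Scored 0–100 damage: 20 DAA pre, 15 d post.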

## CCn1nc([C@H]2CN(C)C(=O)[C@@H]2C(=O)Nc2cccc(F)c2F)c2c(F)cccc21 [Compound 7]
Rate 15
  damage to plant (100=total damage to plant; 0=no damage to plant), ABUTH: 0
  damage to plant (100=total damage to plant; 0=no damage to plant), AMARE: 0
  damage to plant (100=total damage to plant; 0=no damage to plant), BIDPI: 0
  damage to plant (100=total damage to plant; 0=no damage to plant), BRAPL: 0
  damage to plant (100=total damage to plant; 0=no damage to plant), CYPES: 0
  damage to plant (100=total damage to plant; 0=no damage to plant), DIGSA: 0
  damage to plant (100=total damage to plant; 0=no damage to plant), ECHCG: 0
  damage to plant (100=total damage to plant; 0=no damage to plant), ELEIN: 0
  damage to plant (100=total damage to plant; 0=no damage to plant), EPHHL: 0
  damage to plant (100=total damage to plant; 0=no damage to plant), GLXMA: 0
  damage to plant (100=total damage to plant; 0=no damage to plant), IPOHE: 0
  damage to plant (100=total damage to plant; 0=no damage to plant), ORYSA: 0
  damage to plant (100=total damage to plant; 0=no damage to plant), PANMI: 0
  damage to plant (100=total damage to plant; 0=no damage to plant), SETFA: 0
  damage to plant (100=total damage to plant; 0=no damage to plant), SIDSP: 0
  damage to plant (100=total damage to plant; 0=no damage to plant), SORVU: 0
Rate 30
  damage to plant (100=total damage to plant; 0=no damage to plant), ABUTH: 0
  damage to plant (100=total damage to plant; 0=no damage to plant), AMARE: 0
  damage to plant (100=total damage to plant; 0=no damage to plant), BIDPI: 0
  damage to plant (100=total damage to plant; 0=no damage to plant), BRAPL: 60
  damage to plant (100=total damage to plant; 0=no damage to plant), CYPES: 0
  damage to plant (100=total damage to plant; 0=no damage to plant), DIGSA: 80
  damage to plant (100=total damage to plant; 0=no damage to plant), ECHCG: 90
  damage to plant (100=total damage to plant; 0=no damage to plant), ELEIN: 0
  damage to plant (100=total damage to plant; 0=no damage to plant), EPHHL: 0
  damage to plant (100=total damage to plant; 0=no damage to plant), GLXMA: 0
  damage to plant (100=total damage to plant; 0=no damage to plant), IPOHE: 0
  damage to plant (100=total damage to plant; 0=no damage to plant), ORYSA: 0
  damage to plant (100=total damage to plant; 0=no damage to plant), PANMI: 0
  damage to plant (100=total damage to plant; 0=no damage to plant), SETFA: 80
  damage to plant (100=total damage to plant; 0=no damage to plant), SIDSP: 0
  damage to plant (100=total damage to plant; 0=no damage to plant), SORVU: 0
Rate 60
  damage to plant (100=total damage to plant; 0=no damage to plant), ABUTH: 0
  damage to plant (100=total damage to plant; 0=no damage to plant), AMARE: 0
  damage to plant (100=total damage to plant; 0=no damage to plant), BIDPI: 0
  damage to plant (100=total damage to plant; 0=no damage to plant), BRAPL: 80
  damage to plant (100=total damage to plant; 0=no damage to plant), CYPES: 0
  damage to plant (100=total damage to plant; 0=no damage to plant), DIGSA: 90
  damage to plant (100=total damage to plant; 0=no damage to plant), ECHCG: 90
  damage to plant (100=total damage to plant; 0=no damage to plant), ELEIN: 10
  damage to plant (100=total damage to plant; 0=no damage to plant), EPHHL: 0
  damage to plant (100=total damage to plant; 0=no damage to plant), GLXMA: 0
  damage to plant (100=total damage to plant; 0=no damage to plant), IPOHE: 0
  damage to plant (100=total damage to plant; 0=no damage to plant), ORYSA: 0
  damage to plant (100=total damage to plant; 0=no damage to plant), PANMI: 0
  damage to plant (100=total damage to plant; 0=no damage to plant), SETFA: 80
  damage to plant (100=total damage to plant; 0=no damage to plant), SIDSP: 0
  damage to plant (100=total damage to plant; 0=no damage to plant), SORVU: 0
Rate 130
  damage to plant (100=total damage to plant; 0=no damage to plant), ABUTH: 0
  damage to plant (100=total damage to plant; 0=no damage to plant), AMARE: 0
  damage to plant (100=total damage to plant; 0=no damage to plant), BIDPI: 0
  damage to plant (100=total damage to plant; 0=no damage to plant), BRAPL: 80
  damage to plant (100=total damage to plant; 0=no damage to plant), CYPES: 0
  damage to plant (100=total damage to plant; 0=no damage to plant), DIGSA: 100
  damage to plant (100=total damage to plant; 0=no damage to plant), ECHCG: 100
  damage to plant (100=total damage to plant; 0=no damage to plant), ELEIN: 60
  damage to plant (100=total damage to plant; 0=no damage to plant), GLXMA: 0
  damage to plant (100=total damage to plant; 0=no damage to plant), IPOHE: 0
  damage to plant (100=total damage to plant; 0=no damage to plant), ORYSA: 0
  damage to plant (100=total damage to plant; 0=no damage to plant), PANMI: 0
  damage to plant (100=total damage to plant; 0=no damage to plant), SETFA: 90
  damage to plant (100=total damage to plant; 0=no damage to plant), SIDSP: 0
Rate 250
  damage to plant (100=total damage to plant; 0=no damage to plant), ABUTH: 0
  damage to plant (100=total damage to plant; 0=no damage to plant), AMARE: 0
  damage to plant (100=total damage to plant; 0=no damage to plant), BIDPI: 0
  damage to plant (100=total damage to plant; 0=no damage to plant), BRAPL: 90
  damage to plant (100=total damage to plant; 0=no damage to plant), CYPES: 0
  damage to plant (100=total damage to plant; 0=no damage to plant), DIGSA: 100
  damage to plant (100=total damage to plant; 0=no damage to plant), ECHCG: 100
  damage to plant (100=total damage to plant; 0=no damage to plant), ELEIN: 50
  damage to plant (100=total damage to plant; 0=no damage to plant), EPHHL: 10
  damage to plant (100=total damage to plant; 0=no damage to plant), GLXMA: 0
  damage to plant (100=total damage to plant; 0=no damage to plant), IPOHE: 0
  damage to plant (100=total damage to plant; 0=no damage to plant), ORYSA: 0
  damage to plant (100=total damage to plant; 0=no damage to plant), PANMI: 0
  damage to plant (100=total damage to plant; 0=no damage to plant), SETFA: 90
  damage to plant (100=total damage to plant; 0=no damage to plant), SIDSP: 0
Rate 500
  damage to plant (100=total damage to plant; 0=no damage to plant), ABUTH: 10
  damage to plant (100=total damage to plant; 0=no damage to plant), AMARE: 0
  damage to plant (100=total damage to plant; 0=no damage to plant), BIDPI: 0
  damage to plant (100=total damage to plant; 0=no damage to plant), BRAPL: 100
  damage to plant (100=total damage to plant; 0=no damage to plant), CYPES: 20
  damage to plant (100=total damage to plant; 0=no damage to plant), DIGSA: 100
  damage to plant (100=total damage to plant; 0=no damage to plant), ECHCG: 100
  damage to plant (100=total damage to plant; 0=no damage to plant), ELEIN: 70
  damage to plant (100=total damage to plant; 0=no damage to plant), EPHHL: 40
  damage to plant (100=total damage to plant; 0=no damage to plant), GLXMA: 0
  damage to plant (100=total damage to plant; 0=no damage to plant), IPOHE: 0
  damage to plant (100=total damage to plant; 0=no damage to plant), ORYSA: 0
  damage to plant (100=total damage to plant; 0=no damage to plant), PANMI: 20
  damage to plant (100=total damage to plant; 0=no damage to plant), SETFA: 100
  damage to plant (100=total damage to plant; 0=no damage to plant), SIDSP: 10
